Measurements taken from the supplement of paper PMC13380429.
± gives the standard deviation of the averaged measurements.

How the values were obtained:
Conditions in all cases: 72 h
Caco-2 [1] = experiment: relative viability EC50 (midpoint between 100% and the lowest measured viability); higher = less toxic
Vero E6 [2] = experiment: as above
U2OS [3] = experiment: as above
Calu-3 [4] = experiment: as above
HepG2 [5] = experiment: as above
Caco-2 [6] = experiment: cell viability relative to DMSO; higher = less toxic
Vero E6 [7] = experiment: as above
U2OS [8] = experiment: as above
Calu-3 [9] = experiment: as above
HepG2 [10] = experiment: as above
Caco-2 [11] = experiment: drug sensitivity score (DSS) for viability; higher = more toxic; extreme values may be limits of the assay
Vero E6 [12] = experiment: as above
U2OS [13] = experiment: as above
Calu-3 [14] = experiment: as above
HepG2 [15] = experiment: as above

Structure (SMILES) | relative viability EC50 (Caco-2 [1]) | relative viability EC50 (Vero E6 [2]) | relative viability EC50 (U2OS [3]) | relative viability EC50 (Calu-3 [4]) | relative viability EC50 (HepG2 [5]) | cell viability (Caco-2 [6]; 1 nM) | cell viability (Caco-2 [6]; 10 nM) | cell viability (Caco-2 [6]; 100 nM) | cell viability (Caco-2 [6]; 1000 nM) | cell viability (Caco-2 [6]; 10000 nM) | cell viability (Vero E6 [7]; 1 nM) | cell viability (Vero E6 [7]; 10 nM) | cell viability (Vero E6 [7]; 100 nM) | cell viability (Vero E6 [7]; 1000 nM) | cell viability (Vero E6 [7]; 10000 nM) | cell viability (U2OS [8]; 1 nM) | cell viability (U2OS [8]; 10 nM) | cell viability (U2OS [8]; 100 nM) | cell viability (U2OS [8]; 1000 nM) | cell viability (U2OS [8]; 10000 nM) | cell viability (Calu-3 [9]; 1 nM) | cell viability (Calu-3 [9]; 10 nM) | cell viability (Calu-3 [9]; 100 nM) | cell viability (Calu-3 [9]; 1000 nM) | cell viability (Calu-3 [9]; 10000 nM) | cell viability (HepG2 [10]; 1 nM) | cell viability (HepG2 [10]; 10 nM) | cell viability (HepG2 [10]; 100 nM) | cell viability (HepG2 [10]; 1000 nM) | cell viability (HepG2 [10]; 10000 nM) | drug sensitivity score (Caco-2 [11]) | drug sensitivity score (Vero E6 [12]) | drug sensitivity score (U2OS [13]) | drug sensitivity score (Calu-3 [14]) | drug sensitivity score (HepG2 [15])
Nc1ncc2c(n1)CC(c1ccco1)CC2=O (stereo not given) [NKY-80] | > 10 µM | > 10 µM | > 10 µM | > 10 µM | > 10 µM | 97% | 98.3% | 102% | 86.4% | 97.6% | 101% | 104% | 100% | 97.7% | 101% | 96.4% | 97.3% | 99.7% | 97.6% | 100% | 106% | 96.1% | 110% | 101% | 94.8% | 103% | 105% | 109% | 105% | 91% | 0 | 0 | 0 | 0 | 0
CCCCCCCCC(=O)NCc1cc(OC)c(O)cc1I [6-iodo-nordihydrocapsaicin] | > 10 µM | > 10 µM | > 10 µM | > 10 µM | > 10 µM | 97.9% | 101% | 103% | 97.7% | 88.6% | 88.5% | 99.4% | 92.2% | 92.5% | 104% | 97.4% | 98% | 101% | 96.6% | 92.5% | 104% | 98.6% | 108% | 109% | 104% | 96.6% | 110% | 95.6% | 104% | 103% | 0.1 | 0 | 0 | 0 | 0
C[C@]12CCC(=O)C=C1C=C[C@@H]1[C@@H]2CC[C@@]2(C)[C@H]1CC[C@@]21CCC(=O)O1 [canrenone] | > 10 µM | > 10 µM | > 10 µM | > 10 µM | > 10 µM | 96.6% | 100% | 88.4% | 99.1% | 91.7% | 99.3% | 106% | 101% | 104% | 101% | 101% | 101% | 93.2% | 106% | 95.8% | 102% | 111% | 98.5% | 104% | 95% | 106% | 94.5% | 89.1% | 95.4% | 97.5% | 0 | 0 | 0 | 0 | 0
CC[C@@H](c1ccc(F)c(F)c1)n1c(C(=O)OC)c(-c2ccno2)[nH]c1=S | > 10 µM | > 10 µM | > 10 µM | > 10 µM | > 10 µM | 97.9% | 98.3% | 98.4% | 96.9% | 94.2% | 103% | 95.4% | 97.8% | 99.9% | 96.7% | 99.7% | 94% | 98.9% | 96% | 95.7% | 96.1% | 95.1% | 98.6% | 91.3% | 99.8% | 115% | 98.8% | 93.3% | 99.7% | 90.4% | 0 | 0 | 0 | 0 | 0
NC[C@H]1O[C@H](O[C@H]2[C@H](O)[C@@H](O[C@H]3O[C@H](CO)[C@@H](O)[C@H](N)[C@H]3O)[C@H](N)C[C@@H]2N)[C@H](N)[C@@H](O)[C@@H]1O [bekanamycin] | > 10 µM | > 10 µM | > 10 µM | > 10 µM | > 10 µM | 103% | 101% | 95.9% | 110% | 100% | 98.1% | 102% | 99.2% | 97.4% | 108% | 95.7% | 103% | 97.5% | 101% | 97.7% | 111% | 93% | 97.8% | 111% | 97.3% | 94.7% | 97.8% | 103% | 94.4% | 99.1% | 0 | 0 | 0 | 0 | 0
CN1CCN(C(=O)C2C(C(=O)O)[C@H]3CC[C@@H]2O3)CC1 (stereo not given in full) [LB-100] | 1.58 µM | > 10 µM | > 10 µM | > 10 µM | > 10 µM | 103% | 85.7% | 99.8% | 84.7% | 36.5% | 98.3% | 101% | 93.1% | 99% | 106% | 103% | 92.9% | 99.4% | 96.2% | 95.6% | 95.6% | 91.5% | 106% | 92.8% | 86.7% | 98.6% | 97.3% | 109% | 96.6% | 102% | 5.9 | 0 | 0 | 0.5 | 0
COc1ccc([C@@H]2CC(=O)c3c(O)cc(O[C@@H]4O[C@H](CO)[C@@H](O)[C@H](O)[C@H]4O[C@@H]4O[C@@H](C)[C@H](O)[C@@H](O)[C@H]4O)cc3O2)cc1O [neohesperidin] | > 10 µM | > 10 µM | > 10 µM | > 10 µM | > 10 µM | 94.5% | 99.5% | 99.4% | 90.1% | 99.3% | 98.2% | 92.8% | 93.6% | 95.9% | 104% | 96.7% | 98.8% | 97.2% | 96% | 108% | 102% | 91.1% | 95.7% | 101% | 102% | 102% | 97.8% | 103% | 99.3% | 101% | 0 | 0 | 0 | 0 | 0
Cc1cccc(C)c1NC(=O)CN1CCCC1=O [nefiracetam] | > 10 µM | > 10 µM | > 10 µM | > 10 µM | > 10 µM | 98.3% | 91.2% | 105% | 101% | 91.2% | 94.5% | 106% | 92.6% | 102% | 111% | 96.5% | 93.3% | 102% | 97.2% | 102% | 104% | 104% | 97.2% | 108% | 98.7% | 102% | 104% | 96.9% | 102% | 100% | 0 | 0 | 0 | 0 | 0
CNCCCC1(c2ccccc2)OC(C)(C)c2ccccc21 (stereo not given) [talopram] | > 10 µM | > 10 µM | > 10 µM | > 10 µM | > 10 µM | 91.4% | 104% | 103% | 101% | 99.2% | 93.7% | 96.8% | 90.1% | 99% | 104% | 101% | 98.7% | 100% | 99.4% | 99% | 99.4% | 102% | 102% | 96.3% | 103% | 101% | 102% | 89.8% | 110% | 106% | 0 | 0 | 0 | 0 | 0
O=C(Nc1ccccc1)Nc1ccc(-c2ccc(C(=O)[C@@H]3CCC[C@@H]3C(=O)O)cc2)cc1 | > 10 µM | > 10 µM | > 10 µM | > 10 µM | > 10 µM | 99.05 ± 0.78% | 95.8 ± 1.6% | 94.35 ± 0.35% | 97 ± 13% | 85.6 ± 0.28% | 101 ± 3.9% | 98.7 ± 1.1% | 98.45 ± 0.35% | 94.3 ± 2.8% | 95.1 ± 0.57% | 98.5 ± 1.5% | 98.6 ± 5.8% | 100 ± 1.3% | 101 ± 2% | 94.2 ± 2.1% | 111 ± 3% | 103.8 ± 0.85% | 97.2 ± 1.4% | 98.2 ± 5.6% | 108 ± 1.9% | 105.2 ± 0.49% | 96.4 ± 1.4% | 95.5 ± 10% | 92.2 ± 7% | 97.1 ± 7.3% | 0.4 ± 0.42 | 0 | 0 | 0 | 0.35 ± 0.49
NCC(=O)CCC(=O)O [5-aminolevulinic-acid] | > 10 µM | > 10 µM | > 10 µM | > 10 µM | > 10 µM | 100% | 103% | 98.9% | 86.2% | 94% | 93.7% | 94% | 91.7% | 91.3% | 97.8% | 104% | 96.9% | 99% | 94.6% | 95.3% | 96.9% | 104% | 105% | 104% | 104% | 91.4% | 99% | 92.1% | 104% | 104% | 1.1 | 0 | 0 | 0 | 0
N=C(N)NCCC[C@H](N)C(=O)O [L-arginine] | > 10 µM | > 10 µM | > 10 µM | > 10 µM | > 10 µM | 97.6% | 114% | 96.9% | 107% | 98.9% | 97.2% | 99.2% | 102% | 103% | 102% | 105% | 94.9% | 99.6% | 94.6% | 101% | 104% | 95.7% | 104% | 99% | 99.3% | 95.3% | 96.5% | 95.5% | 96% | 89.4% | 0 | 0 | 0 | 0 | 0
Cc1cc(N2CCN([C@@H]3CN[C@H](C(=O)N4CCSC4)C3)CC2)n(-c2ccccc2)n1 [teneligliptin] | > 10 µM | > 10 µM | > 10 µM | > 10 µM | > 10 µM | 104% | 97.9% | 94.3% | 101% | 90% | 104% | 98.9% | 101% | 99.2% | 98.2% | 95.8% | 101% | 99.5% | 100% | 98.3% | 104% | 108% | 92.6% | 91.9% | 102% | 101% | 106% | 98.4% | 97% | 94.7% | 0 | 0 | 0 | 0 | 0
C[C@H](NCc1ccc(OCc2ccccc2F)cc1)C(N)=O [priralfinamide] | > 10 µM | > 10 µM | > 10 µM | > 10 µM | > 10 µM | 97.8% | 104% | 91.6% | 95% | 91.2% | 99.5% | 95.3% | 99.4% | 92.3% | 91.7% | 99.2% | 102% | 96.5% | 99.6% | 97.6% | 103% | 95.2% | 105% | 91.5% | 99.5% | 98% | 87.3% | 98.5% | 97.4% | 93.6% | 0 | 0 | 0 | 0 | 0
